From patent US20040235900A1, “Antimicrobial oxazolifinones with improved pharmacokinetic profile and safety advantages” (priority 2002, published 2004)
≈ marks a conversion by molar mass, not a printed value.

Assays:
[1] = tested on: Streptococcus pneumoniae ATCC 49619; assay: In-vitro MIC test (agar dilution, 5% sheep blood), S. pneumoniae; type: cell-based; settings: ATCC49619, Mueller Hinton agar containing 5% sheep blood, read-out: Minimum Inhibitory Concentrations (MIC) S. pneumoniae
Text: (§1) The test methods used for verifying the antimicrobial action of compound within the scope of this invention are essentially the same as those described in PCT WO 95/25106, U.S. Pat. No. 5,668,286 and EP 0 750, 618 B1, with the difference that the strains of the organisms used for the MIC determinations in these patents and applications are Staphylococcus aureus ATCC 25923, Staphylococcus epidermidis ATCC 12828, Streptococcus pyogenes ATCC 19615.
(§2) The in-vitro MIC methods of test compounds were determined essentially as described in PCT WO 95/25106, U.S. Pat. No. 5,668,286 and EP 0 750 618 B1.
(§3) Overnight grown cultures of S. aureus organisms in Tryptic Soya broth were diluted in Mueller Hinton Broth to give optical density matching with MacFarland tube 0.5 standard. Cultures were further diluted 1:10 in Mueller Hinton broth. Using Denley's mutipoint inoculator, 10^4 cells were deposited on Mueller Hinton agar (Difco) containing range of 2 fold dilutions of test compounds. These plates were incubated for 24 hrs at 35° C. and MIC results recorded. MIC is defined as minimum drug concentration that inhibits test organisms. For determining MIC of test compounds against Streptococcus pneumoniae, Mueller Hinton agar containing 5% sheep blood was employed.

MRSA 32 = assay: Murine assay procedure (systemic MRSA 32 infection, oral treatment); type: in vivo, swiss mice; settings: Staphylococcus aureus; oral administration, doses 1 hr and 4 hrs after infection; MRSA 32 infected mice; percentage survival on Day 7
Method: Oxazolidinone new chemical entities (NCEs) were evaluated for their in vivo efficacy in a murine infection caused by multi-drug resistant, methicillin resistant Staphylococcus aureus strain, referred to as MRSA 32, a clinical isolate obtained from a hospitalised patient. The procedure used for the murine assay is as follows:
Four weeks old swiss mice of 18-22 gm body weight were infected with MRSA 32 strain suspended in 5% Hog gastric Mucin. The infecting dose of bacteria was set at 1-2×10^8 CFU/animal. The infecting dose was administered in 0.5 ml volume injected into peritonial cavity of mice. The treatment with oxazolidinone NCEs was started one hour after infection by administering 100-200 μl of the suspensions of oxazolidinone compounds in 5% Tween 80 by oral gavage. A repeat dose was similarly administered 3 hrs later. Each oxazolidinone NCE was tested at 2-3 different dosages in the range of 2.5 mg/kg to 20 mg/kg. In each dose group 6 mice were included. As an infection control group 12 mice were infected with MRSA 32 strain without giving any treatment. Normally untreated infected mice die within 24 hrs. due to the systemic spread of infection through out the animal body. […] For compounds affording protection of MRSA infected mice, ED50 dosages were calculated on the basis of percentage survival on Day 7 after infection.
The in-vivo ED50 values using the test compounds were determined essentially by the method as described in PCT WO 95/25106, U.S. Pat. No. 5,668,286 and EP 0 750 618 B1.

[2] = tested on: Methicillin Resistant Staphylococcus aureus MRSA-32; assay: In-vitro MIC test (agar dilution), MRSA-32; type: cell-based; settings: Mueller Hinton agar, 24 hrs at 35° C.; for MIC: Staphylococcus aureus, MRSA, read-out: Minimum Inhibitory Concentrations (MIC) MRSA-32
Text: as §1, §2, §3

[3] = tested on: Enterococcus faecalis ATCC 29212; assay: In-vitro MIC test (agar dilution), E. faecalis; type: cell-based; settings: ATCC29212, Mueller Hinton agar, 24 hrs at 35° C., read-out: Minimum Inhibitory Concentrations (MIC) E. faecalis
Text: as §1, §2, §3

[4] = Pharmacokinetic study, single I.V. bolus dose in beagle dog; type: in vivo; settings: iv, single I.V. bolus dose 15 mg/kg (table title), Compound No. 4 and linezolid in 5% Tween, other compounds in cyclodextrin, serum; for concentration at 12 hr: read-out: C-12 hr; for AUC(0-t): read-out: AUC (0-24 hr)
Method: (§4) Blood samples were collected at time points of 0, 0.08 (not for oral), 0.25, 0.50, 1.0, 1.5, 2.0, 3.0, 4.0, 5.0, 6.0, 8.0, 10.0, 12.0 and 24.0 hours. To facilitate i.v. dosing and collection of blood samples, the dogs were implanted with cannula in cephalic vein. Serum obtained from blood samples was used for HPLC-based analysis.
(§5) Serum samples were extracted by solid phase extraction technique using Water's OASIS HLB cartridges. An HPLC-Diode array detection system was used for analysis. Prepared samples were chromatographed on a YMC-AM reversed phase column (150×4.6 mm ID; 5 μm) using an isocratic mobile phase acetate buffer (50 mmol ammonium acetate pH 6.6) acetonitrile, 66:34% v/v (for a representative compound of the invention, 68:32% v/v for compound Nos. 30, 3, 7 and 11 of U.S. Pat. No. 5,668,286, and 75:25% v/v for linezolid) at a flow rate of 1 ml/min, measured at λmax 254 nm. Independently prepared analytical standards and quality control samples were analyzed with each set of unknown samples.
The pharmacokinetics of a representative compound of the invention following single I.V. bolus dose administration of the compound in beagle dog is shown in Table 3.

[5] = Pharmacokinetic study, single oral dose in beagle dog; type: in vivo; settings: serum, single oral dose 5 mg/kg p.o., Compound No. 4 and linezolid in 5% Tween, other compounds in cyclodextrin; for AUC(0-t): read-out: AUC (0-24 hr); for concentration at 12 hr: read-out: C-12 hr
Method: as §4, with “Oral (5 mg/kg) and intravenous (5 mg/kg bolus) pharmacokinetic studies were done in dog. Blood” for “Blood”
as §5
The pharmacokinetics of a representative compound of the invention following single oral dose administration of the compound in beagle dog is shown in Table 2.

| Structure (SMILES) | MIC [1] [µg/mL] | MIC [2] [µg/mL] | MIC [3] [µg/mL] | melting point [°C] | further results |
| --- | --- | --- | --- | --- | --- |
| CC(=O)NC[C@H]1CN(c2ccc(N3CCC(CC#N)CC3)cc2)C(=O)O1 [Compound 2, (S)-N-{3-[4-(4-cyanomethyl-piperidin-1-yl)-phenyl]-2-oxo-oxazolidin-5-ylmethyl}-acetamide] | 2 (≈ 5.61 µM) | 2 (≈ 5.61 µM) | 2 (≈ 5.61 µM) |  | ED50 (MRSA 32): 20 mg/kg |
| N#CCC1CCN(c2ccc(N3C[C@H](CNC(=O)C(F)(F)F)OC3=O)cc2F)CC1 [Compound 8, (S)-N-{3-[4-(4-cyanomethyl-piperidin-1-yl)-3-fluoro-phenyl]-2-oxo-oxazolidin-5-ylmethyl}-trifluoroacetamide] | 2 (≈ 4.67 µM) | 4 (≈ 9.34 µM) | 8 (≈ 18.7 µM) |  |  |
| CC(C)COC(=O)NC[C@H]1CN(c2ccc(N3CCC(CC#N)CC3)c(F)c2)C(=O)O1 [Compound 10, (S)-N-{3-[4-(4-cyanomethyl-piperidin-1-yl)-3-fluoro-phenyl]-2-oxo-oxazolidin-5-ylmethyl}-isobutylcarbamate] |  |  |  |  | Minimum Inhibitory Concentrations (MIC) MRSA-32 [2]: >16.0 µg/mL |
| CC(=O)NC[C@H]1CN(c2ccc(N3CCC(CC#N)C(C)C3)c(F)c2)C(=O)O1 (stereo partly drawn) [Compound 12, (S)-N-{3-[4-((4-cyanomethyl)-3-methyl-piperidin-1-yl)-3-fluoro-phenyl]-2-oxo-oxazolidin-5-ylmethyl}-acetamide] | 2 (≈ 5.15 µM) | 2 (≈ 5.15 µM) | 2 (≈ 5.15 µM) | 148 to 149 |  |
| CC(=O)NC[C@H]1CN(c2ccc(N3CCC(C(C)C#N)CC3)c(F)c2)C(=O)O1 (stereo partly drawn) [Compound 14, (S)-N-{3-[4-(4-(1-cyanoethyl)-piperidin-1-yl)-3-fluoro-phenyl]-2-oxo-oxazolidin-5-ylmethyl}-acetamide] | 2 (≈ 5.15 µM) | 2 (≈ 5.15 µM) | 2 (≈ 5.15 µM) | 147 to 148 |  |
| CCC(C#N)C1CCN(c2ccc(N3C[C@H](CNC(C)=O)OC3=O)cc2F)CC1 (stereo partly drawn) [Compound 15, (S)-N-{3-[4-(4-(1-cyanopropyl)-piperidin-1-yl)-3-fluoro-phenyl]-2-oxo-oxazolidin-5-ylmethyl}-acetamide] | 2 (≈ 4.97 µM) | 4 (≈ 9.94 µM) | 4 (≈ 9.94 µM) | 185 to 186 |  |
| CCCC(C#N)C1CCN(c2ccc(N3C[C@H](CNC(C)=O)OC3=O)cc2F)CC1 (stereo partly drawn) [Compound 16, (S)-N-{3-[4-(4-(1-cyanobutyl)-piperidin-1-yl)-3-fluoro-phenyl]-2-oxo-oxazolidin-5-ylmethyl}-acetamide] | 4 (≈ 9.6 µM) | 4 (≈ 9.6 µM) | 4 (≈ 9.6 µM) | 180 to 182 |  |
| CC(=O)NC[C@H]1CN(c2ccc(N3CCC(C(C#N)CO)CC3)c(F)c2)C(=O)O1 (stereo partly drawn) [Compound 17, (S)-N-{3-[4-(4-(1-cyano-2-hydroxyethyl)-piperidin-1-yl)-3-fluoro-phenyl]-2-oxo-oxazolidin-5-ylmethyl}-acetamide] | 2 (≈ 4.95 µM) | 2 (≈ 4.95 µM) | 2 (≈ 4.95 µM) | 182 to 184 | ED50 (MRSA 32): 20 mg/kg |
| CC(=O)NC[C@H]1CN(c2ccc(N3CCC(C(C#N)C(=O)O)CC3)c(F)c2)C(=O)O1 (stereo partly drawn) [Compound 18, (S)-N-{3-[4-(4-(1-cyano-1-hydroxycarbonyl)-piperidin-1-yl)-3-fluoro-phenyl]-2-oxo-oxazolidin-5-ylmethyl}-acetamide] |  |  |  | 198 to 200 |  |
| CC(=O)NC[C@H]1CN(c2ccc(N3CCC(C(C#N)C#N)CC3)c(F)c2)C(=O)O1 [Compound 19, (S)-N-{3-[4-(4-(1,1-dicyanomethyl)-piperidin-1-yl)-3-fluoro-phenyl]-2-oxo-oxazolidin-5-ylmethyl}-acetamide] | 1 (≈ 2.5 µM) | 2 (≈ 5.01 µM) | 2 (≈ 5.01 µM) | 223 to 225 |  |
| CC(=O)NC[C@H]1CN(c2ccc(N3CCC(O)CC3)c(F)c2)C(=O)O1 [U.S. Pat. No. 5,668,286 (No. 3), (S)-N-{3-[3-fluoro-4-(4-hydroxy-piperidin-1-yl)-phenyl]-2-oxo-oxazolidin-5-ylmethyl}-acetamide] |  |  |  |  | Cmax [4]: 6190 ng/mL; concentration at 12 hr [4]: 0 ng/mL; half-life [4]: 0.98 h; AUC(0-t) [4]: 7530 ng·h/mL; half-life [5]: 1.37 h; AUC(0-t) [5]: 2740 ng·h/mL; Cmax [5]: 1520 ng/mL; concentration at 12 hr [5]: 0 ng/mL |
| CC(=O)NC[C@H]1CN(c2ccc(N3CCC(=O)CC3)c(F)c2)C(=O)O1 [U.S. Pat. No. 5,668,286 (No. 7), (S)-N-{3-[3-fluoro-4-(4-oxo-piperidin-1-yl)-phenyl]-2-oxo-oxazolidin-5-ylmethyl}-acetamide] |  |  |  |  | concentration at 12 hr [4]: 0 ng/mL; concentration at 12 hr [5]: 0 ng/mL |
| CC(=O)NC[C@H]1CN(c2ccc(N3CCC(=NO)CC3)c(F)c2)C(=O)O1 [U.S. Pat. No. 5,668,286 (No. 11), (S)-N-{3-[3-fluoro-4-(4-hydroxyimino-piperidin-1-yl)-phenyl]-2-oxo-oxazolidin-5-ylmethyl}-acetamide] |  |  |  |  | Cmax [4]: 4150 ng/mL; concentration at 12 hr [4]: 0 ng/mL; half-life [4]: 0.16 h; AUC(0-t) [4]: 1320 ng·h/mL; concentration at 12 hr [5]: 0 ng/mL |
| CC(=O)NC[C@H]1CN(c2ccc(N3CCC4(CC3)OCCO4)c(F)c2)C(=O)O1 [U.S. Pat. No. 5,668,286 (No. 30), (S)-N-{3-[4-(1,4-dioxa-8-aza-spiro[4.5]dec-8-yl)-3-fluoro-phenyl]-2-oxo-oxazolidin-5-ylmethyl}-acetamide] |  |  |  |  | Cmax [4]: 7640 ng/mL; concentration at 12 hr [4]: 1190 ng/mL; half-life [4]: 6.71 h; AUC(0-t) [4]: 45100 ng·h/mL; half-life [5]: 6.68 h; AUC(0-t) [5]: 47200 ng·h/mL; Cmax [5]: 5310 ng/mL; concentration at 12 hr [5]: 1840 ng/mL |
